Our source for the IC50 values is patent publication US20230014907A1, “INHIBITORS OF APOL1 AND METHODS OF USING SAME” (Vertex Pharmaceuticals Incorporated, priority 2020, published 2023).

Bounds are passed on as bounds.

In one assay the target is T1, APOL1 G1 Protein (Homo sapiens, UniProt O14791, I384M/S342G).
T1 sequence (O14791 28-398 S342G/I384M): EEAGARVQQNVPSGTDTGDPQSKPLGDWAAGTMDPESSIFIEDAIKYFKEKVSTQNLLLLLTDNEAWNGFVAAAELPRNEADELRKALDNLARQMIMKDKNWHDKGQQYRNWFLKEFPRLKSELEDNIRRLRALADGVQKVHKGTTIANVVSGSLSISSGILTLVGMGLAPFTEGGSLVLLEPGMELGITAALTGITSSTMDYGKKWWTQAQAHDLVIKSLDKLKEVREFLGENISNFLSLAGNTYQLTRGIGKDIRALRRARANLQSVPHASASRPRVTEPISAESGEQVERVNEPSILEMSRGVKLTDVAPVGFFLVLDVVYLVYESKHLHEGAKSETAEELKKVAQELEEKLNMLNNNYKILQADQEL
The assay can be described thus: Trypanosoma brucei brucei Lysis Assay Using APOL1 Recombinant Protein (AlamarBlue viability). The assay is classed as cell-based. To be noted: read-out: Trypanosomal Assay (IC50). From the text:
Trypanosoma brucei brucei is a blood stream parasite to which human, gorillas and baboon are immune due to the presence of the APOL1 protein in their HDL particles. The protein is uptaken by the parasite via the TbHpHb receptor located in its flagellar pocket and is bonded by the Hpr protein contained in the HDL particles which triggers the receptor endocytosis by the parasite.
Following endocytosis, the formed vesicle containing the HDL particle matures from early to late endosome, and subsequently to lysosome. The concomitant pH change in the lumen of the vesicle triggers the insertion of the APOL1 protein into the membrane of the late endosome/lysosome and hereby triggers lysosomal membrane permeabilization and as a further downstream event, trypanosome lysis. Trypanosoma brucei brucei is sensitive to lysis by all three APOL1 variants (G0, G1, and G2).
The Trypanosoma brucei brucei lysis assay is a lysis assay of the parasite using recombinant APOL1 protein variant followed by a fluorescent detection method of viability by the addition of AlamarBlue reagent to the assay well, a general metabolic redox indicator (AlamarBlue assay).
Briefly, the AlamarBlue active compound, the resazurin, a blue, water soluble, non-toxic and cell permeable molecule, which can be followed by absorbance, is reduced by various metabolic pathways into resorufin, a red compound which can be followed by either absorbance or fluorescence. The assay allows the calculation of the percent viability (percent of living Trypanosomes remaining in each well) at the end of a lysis relative to the untreated condition by interpolation of fluorescent values (FLU) on a standard curve with a known amount of seeded trypanosome/well.
Trypanosoma brucei brucei (ATCC, Cat. No. PRA-382) • Lister 427 VSG 221 bloodstream form.
Thaw/Expansion Media (ATCC Medium 2834 Modified HMI-9 Medium)
Assay Media (No Phenol Red/No FBS): Make on Day of Use
Hypoxanthine Stock (100×)-9 (10×)
Equipment • E1-Clip Tip pipette 12 channel adjustable 2-125 μL, Cat. No. 4672070BT • ThermoFisher MultiDrop 384, Cat. No. 5840300 • Multidrop • Agilent Bravo, Cat. No. G5409A • Bravo • SpectraMax M5
Trypanosoma brucei brucei Culture
Step 2, Day 4 • Centrifuge at 800×g for 5 minutes at room temperature. • Resuspend in 1 mL media. • Make a 1:25 fold dilution (10 μL/240 μL media). • Count on a hemocytometer (after adding parasites). • Let sit for 1-2 minutes for the parasites to settle. • Count should be approximately 100 viable motile parasites/16 grid or approximately 25×10^6 parasites/flask. • Passage the parasites by adding 1×10^6 parasites/T75 flask in 20 mL media. • Passage the parasites by adding 2.33×10^6 parasites/T175 flask in 46.6 mL media. • For every T75 flask should make enough for approximately 1.5×384 well assay plates. • For every T175 flask should make enough for approximately 3.8×384 well assay plates.
Step 3, Day 6 • Centrifuge at 800×g for 5 minutes. • Resuspend in 3 mL assay media (No phenol red, no FBS) per 75 starting flask. • Resuspend in 7 mL assay media (No phenol red, no FBS) per 175 flask • Make a 1:25 fold dilution. • Count by hemocytometer. • Every T75 flask set up should have approximately 75×10^6 parasites/flask (verify doubling time=8.7 hours±1 hour). • Every T175 flask set up should have approximately 175×10^6 parasites/flask (verify doubling time=8.7 hours±1 hour). • Require 46×10^6 parasites per 384 well plate (at 120,000 parasites per well). […]

A further assay deals with T2, G1 APOL1 (Homo sapiens, UniProt O14791, I384M/S342G).
T2 construct: expressed in transfected cells
T2 sequence (O14791 28-398 S342G/I384M): T1 sequence (O14791 28-398 S342G/I384M)
The assay can be described thus: Acute APOL1 Thallium Assay with Inducible Stable Clones of HEK 293 Cells. The assay is classed as cell-based. The note with it: HEK 293 inducible stable clones, G1 APOL1; read-out: Thallium Assay (IC50). The method in brief: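 Pore activity was read as the fluorescence increase from Tl+ entering cells loaded with an AM-ester thallium indicator dye. The cells were tetracycline-inducible HEK293 T-Rex expressing G1 APOL1 (clone DC3.25), induced when plated at 26000 per well and incubated at 37° C.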

Turning to `OCCCc1c(-c2ccc(F)cc2)[nH]c2c(F)cc(F)cc12` [Compound 517, 3-[5,7-difluoro-2-(4-fluorophenyl)-1H-indol-3-yl]propan-1-ol], the half-inhibitory concentration (IC50) on APOL1 G1 Protein and at G1 APOL1 was under 0.25 µM each time.
`O=C(CCc1c(-c2ccc(F)cc2)[nH]c2c(F)cc(F)cc12)NC1CCC1(F)F` (stereo not shown) [Compound 124]: the IC50 is over 1 µM at APOL1 G1 Protein and 0.25 to 1 µM on G1 APOL1.
For `O=C(CCc1c(-c2ccc(F)cc2)[nH]c2c(F)cc(F)cc12)NCc1ccc(Cl)s1` [Compound 130] the same measures were over 1 µM and over 1 µM.
Consider `O=C(CCc1c(-c2ccc(F)cc2)[nH]c2c(F)cc(F)cc12)NC1(C(F)(F)F)CC1` [Compound 129], for which the IC50 at APOL1 G1 Protein and on G1 APOL1 was over 1 µM in each case.
For `O=C(CCc1c(-c2ccc(F)cc2)[nH]c2c(F)cc(F)cc12)NC[C@H](O)C(F)(F)F` [Compound 114], the half-inhibitory concentration (IC50) on APOL1 G1 Protein and at G1 APOL1 was over 1 µM throughout.
On to `C[C@H](CO)NC(=O)CCc1c(-c2ccc(F)cc2)[nH]c2c(F)cc(F)cc12` [Compound 120], for which the IC50 on APOL1 G1 Protein and on G1 APOL1 was under 0.25 µM each time.
In the case of `CCC(C)(CO)NC(=O)CCc1c(-c2ccc(F)cc2)[nH]c2ccc(F)cc12` (racemic) [Compound 62], the half-inhibitory concentration (IC50) on APOL1 G1 Protein and at G1 APOL1 was over 1 µM each time.
With `O=C(CCc1c(-c2ccc(F)cc2)[nH]c2ccc(F)cc12)N1CCC(O)C1` (stereo not shown) [Compound 42], the concentration for half-maximal inhibition (IC50) at APOL1 G1 Protein and at G1 APOL1 was over 1 µM each time.
Consider `CC(C)(C)OC(=O)N[C@H]1C[C@@H](NC(=O)CCc2c(-c3ccc(F)cc3)[nH]c3ccc(F)cc23)C1` [Compound 83], for which the IC50 on APOL1 G1 Protein and at G1 APOL1 was over 1 µM in each case.
`O=C(CCc1c(-c2ccccc2)[nH]c2ccc(F)cc12)NCCO` [Compound 236]: the half-inhibitory concentration (IC50) at APOL1 G1 Protein and at G1 APOL1 was over 1 µM in each case.
Turning to `O=C(CCc1c(-c2ccc(F)cc2)[nH]c2c(F)cc(F)cc12)NC1(CO)CC1` [Compound 131], the IC50 at APOL1 G1 Protein and on G1 APOL1 was under 0.25 µM throughout.
As for `CC(=O)NCCSc1c(-c2ccc(F)cc2)[nH]c2c(F)cc(F)cc12` [Compound 509, N-[2-[[5,7-difluoro-2-(4-fluorophenyl)-1H-indol-3-yl]sulfanyl]ethyl]acetamide], the half-inhibitory concentration (IC50) on APOL1 G1 Protein and on G1 APOL1 was under 0.25 µM in each case.
Consider `CC(C)(CO)NC(=O)CCc1c(-c2ccc(F)cc2)[nH]c2c(F)cc(F)cc12` [Compound 103], for which the IC50 at APOL1 G1 Protein and on G1 APOL1 was 0.25 to 1 µM throughout.
For the compound `C[C@@H](CO)NC(=O)CCc1c(-c2ccc(F)cc2)[nH]c2ccc(F)cc12` [Compound 31], the values for the 50% inhibitory concentration (IC50) at APOL1 G1 Protein and on G1 APOL1 were 0.25 to 1 µM and over 1 µM, respectively.
Regarding `O=C(CCc1c(-c2ccc(F)cc2)[nH]c2c(F)cc(F)cc12)NC[C@@H](O)C(F)(F)F` [Compound 137], the IC50 at APOL1 G1 Protein and on G1 APOL1 was over 1 µM each time.
As to `O=C(CCc1c(-c2ccc(F)cc2)[nH]c2c(F)cc(F)cc12)NCc1cnn(C2CC(F)(F)C2)c1` [Compound 176], the IC50 at APOL1 G1 Protein and on G1 APOL1 was over 1 µM in each case.
Take `O=C(CCc1c(-c2ccc(F)cc2)[nH]c2ccccc12)NC1CC1` [Compound 238]: the IC50 at APOL1 G1 Protein and on G1 APOL1 was over 1 µM throughout.
Take `NC(=O)C1(NC(=O)CCc2c(-c3ccc(F)cc3)[nH]c3ccc(F)cc23)CC1` [Compound 20]: the IC50 at APOL1 G1 Protein and at G1 APOL1 was over 1 µM each time.
For the compound `O=C(CCc1c(-c2ccc(F)cc2)[nH]c2c(F)cc(F)cc12)NCc1cnn(CC(F)(F)F)c1` [Compound 186], the concentration for half-maximal inhibition (IC50) at APOL1 G1 Protein and on G1 APOL1 was over 1 µM each time.
As for `CC(CO)(CO)NC(=O)CCc1c(-c2ccc(F)cc2)[nH]c2ccc(F)cc12` [Compound 18], the IC50 on APOL1 G1 Protein and at G1 APOL1 was 0.25 to 1 µM throughout.
Turning to `O=C(CCO)NCCc1c(-c2ccc(F)cc2)[nH]c2c(F)cc(F)cc12` [Compound 361], the concentration for half-maximal inhibition (IC50) at APOL1 G1 Protein and at G1 APOL1 was 0.25 to 1 µM in each case.
As for `CC(CO)N(C)C(=O)CCc1c(-c2ccc(F)cc2)[nH]c2ccc(F)cc12` (stereo not shown) [Compound 51], the IC50 at APOL1 G1 Protein and at G1 APOL1 was over 1 µM each time.
On to `CN1CC(NC(=O)CCc2c(-c3ccc(F)cc3)[nH]c3ccc(F)cc23)C(=O)N1` (stereo not shown) [Compound 41], for which the 50% inhibitory concentration (IC50) on APOL1 G1 Protein and at G1 APOL1 was over 1 µM in each case.
In the case of `CC1(NC(=O)CCc2c(-c3ccc(F)cc3)[nH]c3c(F)cc(F)cc23)CCOC1` (racemic) [Compound 152], the concentration for half-maximal inhibition (IC50) on APOL1 G1 Protein and on G1 APOL1 was over 1 µM in each case.
`CC(=O)NCC(F)(F)Cc1c(-c2ccc(F)cc2)[nH]c2c(F)cc(F)cc12` [Compound 515, N-[3-[5,7-difluoro-2-(4-fluorophenyl)-1H-indol-3-yl]-2,2-difluoro-propyl]acetamide]: the concentration for half-maximal inhibition (IC50) at APOL1 G1 Protein and on G1 APOL1 was 0.25 to 1 µM throughout.
On to `O=C(/C=C/c1c(-c2ccc(F)cc2)[nH]c2c(F)cc(F)cc12)N[C@@H]1C(=O)NC[C@H]1O` [Compound 518, (E)-3-[5,7-difluoro-2-(4-fluorophenyl)-1H-indol-3-yl]-N-[(3S,4R)-4-hydroxy-2-oxo-pyrrolidin-3-yl]prop-2-enamide], for which the IC50 at APOL1 G1 Protein and on G1 APOL1 was under 0.25 µM each time.
As to `CC(C)C[C@@H](CO)NC(=O)CCc1c(-c2ccc(F)cc2)[nH]c2c(F)cc(F)cc12` [Compound 158], the half-maximal inhibitory concentration (IC50) at APOL1 G1 Protein and at G1 APOL1 was over 1 µM in each case.
Turning to `C[C@@H](O)[C@H](CO)NC(=O)CCc1c(-c2ccc(F)cc2)[nH]c2ccc(F)cc12` [Compound 38], the IC50 at APOL1 G1 Protein and at G1 APOL1 was 0.25 to 1 µM in each case.
As to `CC[C@H](CO)NC(=O)CCc1c(-c2ccc(F)cc2)[nH]c2ccc(F)cc12` [Compound 89], the values for the IC50 on APOL1 G1 Protein and on G1 APOL1 were under 0.25 µM and 0.25 to 1 µM, respectively.
In the case of `CC1(C)COC(=O)C1NC(=O)CCc1c(-c2ccc(F)cc2)[nH]c2c(F)cc(F)cc12` (stereo not shown) [Compound 193], the half-maximal inhibitory concentration (IC50) at APOL1 G1 Protein and at G1 APOL1 was over 1 µM throughout.
`O=C(CCc1c(-c2ccc(F)cc2)[nH]c2ccc(F)cc12)N[C@H]1C[C@H](O)C1` [Compound 84]: the IC50 on APOL1 G1 Protein and at G1 APOL1 was over 1 µM throughout.
In the case of `C[C@H](NC(=O)CCc1c(-c2ccc(F)cc2)[nH]c2ccc(F)cc12)C(N)=O` [Compound 61], the IC50 at APOL1 G1 Protein and at G1 APOL1 was over 1 µM in each case.
Take `CNC(=O)CCc1c(-c2ccc(F)cc2)[nH]c2ccc(F)cc12` [Compound 73]: the concentration for half-maximal inhibition (IC50) on APOL1 G1 Protein and on G1 APOL1 was over 1 µM throughout.
`CC1(N)CCN(C(=O)CCc2c(-c3ccc(F)cc3)[nH]c3ccc(F)cc23)C1` (racemic) [Compound 67]: the IC50 at APOL1 G1 Protein and on G1 APOL1 was over 1 µM throughout.
With `O=C1CCC(NC(=O)CCc2c(-c3ccc(F)cc3)[nH]c3c(F)cc(F)cc23)C(=O)N1` (stereo not shown) [Compound 190], the half-inhibitory concentration (IC50) on APOL1 G1 Protein and at G1 APOL1 was over 1 µM each time.
